Measured values published in patent EP3638283B1, “ANTAGONISTS OF CAV2.3 R-TYPE CALCIUM CHANNELS FOR THE TREATMENT OF NEURODEGENERATIVE DISEASES” (Lario Therapeutics Ltd., priority 2017, dated 2018).
Read-outs that look alike come from different tables or passages of the source.

Legend:
[1] = test system: SN DA neurons; assay: Dopamine auto-inhibition of SN DA neuron pacemaker activity, patch-clamp recordings in mouse brain slices; assay type: cell-based; conditions: isradipine 300nM; dopamine 100 µM
[2] = test system: SN DA neurons; conditions: cited from earlier work
[3] = test system: SN DA neurons; conditions: neurotoxin PD-mouse models; pharmacological L-type calcium channel inhibition (Ilijic et al., 2011; Ortner et al., 2017); cited from earlier work
[4] = Parkinson Study, 2013; cited from earlier work
[5] = test system: SN DA neurons; assay type: cell-based, mouse
[6] = test system: SN DA neurons; assay type: cell-based, mouse; remark: listed apart in the source
[7] = target: T1, voltage-sensitive A-type Kv4.3 K+ channels (Homo sapiens, UniProt Q9UK17); conditions: Kimm & Bean 2014; cited from earlier work
T1 sequence (Q9UK17 1-655): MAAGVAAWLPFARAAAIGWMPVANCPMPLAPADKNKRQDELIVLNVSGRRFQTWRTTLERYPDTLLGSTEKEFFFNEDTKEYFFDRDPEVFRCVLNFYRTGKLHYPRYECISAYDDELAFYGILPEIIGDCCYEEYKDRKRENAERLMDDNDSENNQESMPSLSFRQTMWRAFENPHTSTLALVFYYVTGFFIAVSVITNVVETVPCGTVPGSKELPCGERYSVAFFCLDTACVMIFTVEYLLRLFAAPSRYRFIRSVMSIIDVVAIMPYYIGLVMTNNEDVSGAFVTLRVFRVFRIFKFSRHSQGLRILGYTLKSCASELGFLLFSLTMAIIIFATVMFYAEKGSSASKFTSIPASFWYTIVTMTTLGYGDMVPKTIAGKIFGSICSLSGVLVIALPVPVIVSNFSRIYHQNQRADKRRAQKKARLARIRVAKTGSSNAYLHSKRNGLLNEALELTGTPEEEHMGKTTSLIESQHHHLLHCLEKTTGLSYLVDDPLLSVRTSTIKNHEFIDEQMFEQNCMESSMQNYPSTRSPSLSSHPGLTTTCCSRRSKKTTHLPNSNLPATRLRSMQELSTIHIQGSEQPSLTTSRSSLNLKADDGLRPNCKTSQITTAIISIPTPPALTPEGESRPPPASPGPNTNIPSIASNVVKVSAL

## COC(=O)C1=C(C)NC(C)=C(C(=O)OC(C)C)C1c1cccc2nonc12 (stereo not drawn) [isradipine]
[1]
  sensitized dopamine-autoinhibition of SN DA neurons: did not substantially alter
[2]; cell body of WT SN DA neurons, in the presence of isradipine (Ortner et al., 2017)
  somatic activity-dependent Ca^2+ oscillations: not significantly affected
[2]; distal dendrites versus cell-bodies (Guzman et al., 2010; Ortner et al.)
  sensitivity of activity-dependent Ca^2+ oscillations in SN DA neurons to the blocker: only in distal dendrites but not in the cell-bodies
[3]
  SN DA neuroprotection: inconclusive findings
[4]
  maximal tolerable dosis: 10 mg/day

## SNX-482
[5]
  D2-AR responses of adult SN DA neurons (dopamine-autoinhibition): desensitized D2-AR responses
[6]
  action potential-induced somatic Ca^2+ transients: significantly reduced
[7]
  affinity of inhibition of A-type Kv4.3 K+ channels: high nanomolar affinity

## ω-conotoxin MVIIC [[…]-conotoxin MVIIC]
[5]
  sensitized dopamine-autoinhibition of SN DA neurons: did not substantially alter
